The source made the active and inactive calls.
Assays:
Oryza sativa [1] = experiment: Phytotoxicity against Oryza sativa cv. Koshihikari (rice) at 2000 g a.i/ha measured after 14 days; assay type: organism-based; settings: in vivo, 336 h
Echinochloa oryzicola [2] = experiment: Pre-emergence herbicidal activity against Echinochloa oryzicola at 2000 g a.i/ha measured after 14 days; assay type: functional, organism-based
Eleocharis acicularis [3] = experiment: Post-emergence herbicidal activity against Eleocharis acicularis assessed as bleaching of stem/leaf parts; assay type: functional, organism-based; further: test concentration or dose not given here
Eleocharis acicularis [4] = experiment: Pre-emergence herbicidal activity against Eleocharis acicularis assessed as bleaching of stem/leaf parts; assay type: functional, organism-based
Ammannia multiflora [5] = experiment: Pre-emergence herbicidal activity against Ammannia multiflora assessed as bleaching of stem/leaf parts; assay type: functional, organism-based
Rotala indica [6] = experiment: Pre-emergence herbicidal activity against Rotala indica assessed as bleaching of stem/leaf parts; assay type: functional, organism-based
Elatine triandra [7] = experiment: Pre-emergence herbicidal activity against Elatine triandra assessed as bleaching of stem/leaf parts; assay type: functional, organism-based
Lindernia procumbens [8] = experiment: Pre-emergence herbicidal activity against Lindernia procumbens assessed as bleaching of stem/leaf parts; assay type: functional, organism-based
[9] = test system: Schoenoplectiella juncoides; experiment: Pre-emergence herbicidal activity against Schoenoplectiella juncoides assessed as bleaching of stem/leaf parts; assay type: functional, organism-based
Pontederia vaginalis [10] = experiment: Pre-emergence herbicidal activity against Monochoria vaginalis assessed as bleaching of stem/leaf parts; assay type: functional, organism-based
Cyperus difformis [11] = experiment: Pre-emergence herbicidal activity against Cyperus difformis assessed as bleaching of stem/leaf parts; assay type: functional, organism-based
Echinochloa oryzicola [12] = experiment: Pre-emergence herbicidal activity against Echinochloa oryzicola assessed as bleaching of stem/leaf parts; assay type: functional, organism-based
Ammannia multiflora [13] = experiment: Post-emergence herbicidal activity against Ammannia multiflora assessed as bleaching of stem/leaf parts; assay type: functional, organism-based; further: test concentration or dose not given here
Elatine triandra [14] = experiment: Post-emergence herbicidal activity against Elatine triandra assessed as bleaching of stem/leaf parts; assay type: functional, organism-based; further: test concentration or dose not given here
Rotala indica [15] = experiment: Post-emergence herbicidal activity against Rotala indica assessed as bleaching of stem/leaf parts; assay type: functional, organism-based; further: test concentration or dose not given here
[16] = test system: Schoenoplectiella juncoides; experiment: Post-emergence herbicidal activity against Schoenoplectiella juncoides assessed as bleaching of stem/leaf parts; assay type: functional, organism-based; further: test concentration or dose not given here
Lindernia procumbens [17] = experiment: Post-emergence herbicidal activity against Lindernia procumbens assessed as bleaching of stem/leaf parts; assay type: functional, organism-based; further: test concentration or dose not given here
Pontederia vaginalis [18] = experiment: Post-emergence herbicidal activity against Monochoria vaginalis assessed as bleaching of stem/leaf parts; assay type: functional, organism-based; further: test concentration or dose not given here
Cyperus difformis [19] = experiment: Post-emergence herbicidal activity against Cyperus difformis assessed as bleaching of stem/leaf parts; assay type: functional, organism-based; further: test concentration or dose not given here
Echinochloa oryzicola [20] = experiment: Post-emergence herbicidal activity against Echinochloa oryzicola assessed as bleaching of stem/leaf parts; assay type: functional, organism-based; further: test concentration or dose not given here
Eleocharis acicularis [21] = experiment: Pre-emergence herbicidal activity against Eleocharis acicularis at 2000 g a.i/ha measured after 14 days; assay type: functional, organism-based
[22] = test system: Schoenoplectiella juncoides; experiment: Pre-emergence herbicidal activity against Schoenoplectiella juncoides at 2000 g a.i/ha measured after 14 days; assay type: functional, organism-based
Pontederia vaginalis [23] = experiment: Pre-emergence herbicidal activity against Monochoria vaginalis at 2000 g a.i/ha measured after 14 days; assay type: functional, organism-based
Ammannia multiflora [24] = experiment: Pre-emergence herbicidal activity against Ammannia multiflora at 2000 g a.i/ha measured after 14 days; assay type: functional, organism-based
Rotala indica [25] = experiment: Pre-emergence herbicidal activity against Rotala indica at 2000 g a.i/ha measured after 14 days; assay type: functional, organism-based
Elatine triandra [26] = experiment: Pre-emergence herbicidal activity against Elatine triandra at 2000 g a.i/ha measured after 14 days; assay type: functional, organism-based
Lindernia procumbens [27] = experiment: Pre-emergence herbicidal activity against Lindernia procumbens at 2000 g a.i/ha measured after 14 days; assay type: functional, organism-based
Cyperus difformis [28] = experiment: Pre-emergence herbicidal activity against Cyperus difformis at 2000 g a.i/ha measured after 14 days; assay type: functional, organism-based
Eleocharis acicularis [29] = experiment: Pre-emergence herbicidal activity against Eleocharis acicularis at 100 g a.i/ha measured after 14 days; assay type: functional, organism-based
Oryza sativa [30] = experiment: Phytotoxicity against Oryza sativa cv. Koshihikari (rice) at 100 g a.i/ha measured after 14 days; assay type: organism-based; settings: in vivo, 336 h
[31] = test system: Schoenoplectiella juncoides; experiment: Pre-emergence herbicidal activity against Schoenoplectiella juncoides at 100 g a.i/ha measured after 14 days; assay type: functional, organism-based
Pontederia vaginalis [32] = experiment: Pre-emergence herbicidal activity against Monochoria vaginalis at 100 g a.i/ha measured after 14 days; assay type: functional, organism-based
Ammannia multiflora [33] = experiment: Pre-emergence herbicidal activity against Ammannia multiflora at 100 g a.i/ha measured after 14 days; assay type: functional, organism-based
Rotala indica [34] = experiment: Pre-emergence herbicidal activity against Rotala indica at 100 g a.i/ha measured after 14 days; assay type: functional, organism-based
Elatine triandra [35] = experiment: Pre-emergence herbicidal activity against Elatine triandra at 100 g a.i/ha measured after 14 days; assay type: functional, organism-based
Lindernia procumbens [36] = experiment: Pre-emergence herbicidal activity against Lindernia procumbens at 100 g a.i/ha measured after 14 days; assay type: functional, organism-based
Cyperus difformis [37] = experiment: Pre-emergence herbicidal activity against Cyperus difformis at 100 g a.i/ha measured after 14 days; assay type: functional, organism-based
Echinochloa oryzicola [38] = experiment: Pre-emergence herbicidal activity against Echinochloa oryzicola at 100 g a.i/ha measured after 14 days; assay type: functional, organism-based
Oryza sativa [39] = experiment: Phytotoxicity against Oryza sativa cv. Koshihikari (rice) at 500 g a.i/ha measured after 14 days; assay type: organism-based; settings: in vivo, 336 h
Eleocharis acicularis [40] = experiment: Pre-emergence herbicidal activity against Eleocharis acicularis at 500 g a.i/ha measured after 14 days; assay type: functional, organism-based
Pontederia vaginalis [41] = experiment: Pre-emergence herbicidal activity against Monochoria vaginalis at 500 g a.i/ha measured after 14 days; assay type: functional, organism-based
[42] = test system: Schoenoplectiella juncoides; experiment: Pre-emergence herbicidal activity against Schoenoplectiella juncoides at 500 g a.i/ha measured after 14 days; assay type: functional, organism-based
Ammannia multiflora [43] = experiment: Pre-emergence herbicidal activity against Ammannia multiflora at 500 g a.i/ha measured after 14 days; assay type: functional, organism-based
Elatine triandra [44] = experiment: Pre-emergence herbicidal activity against Elatine triandra at 500 g a.i/ha measured after 14 days; assay type: functional, organism-based
Rotala indica [45] = experiment: Pre-emergence herbicidal activity against Rotala indica at 500 g a.i/ha measured after 14 days; assay type: functional, organism-based
Lindernia procumbens [46] = experiment: Pre-emergence herbicidal activity against Lindernia procumbens at 500 g a.i/ha measured after 14 days; assay type: functional, organism-based
Echinochloa oryzicola [47] = experiment: Pre-emergence herbicidal activity against Echinochloa oryzicola at 500 g a.i/ha measured after 14 days; assay type: functional, organism-based
Cyperus difformis [48] = experiment: Pre-emergence herbicidal activity against Cyperus difformis at 500 g a.i/ha measured after 14 days; assay type: functional, organism-based

SMILES	Activity (Eleocharis acicularis [3])	Activity (Eleocharis acicularis [4])	Activity (Ammannia multiflora [5])	Activity (Rotala indica [6])	Activity (Elatine triandra [7])	Activity (Lindernia procumbens [8])	Activity [9]	Activity (Pontederia vaginalis [10])	Activity (Cyperus difformis [11])	Activity (Echinochloa oryzicola [12])	Activity (Ammannia multiflora [13])	Activity (Elatine triandra [14])	Activity (Rotala indica [15])	Activity [16]	Activity (Lindernia procumbens [17])	Activity (Pontederia vaginalis [18])	Activity (Cyperus difformis [19])	Activity (Echinochloa oryzicola [20])	Activity (Eleocharis acicularis [29])	Activity (Oryza sativa [30])	further results
CCCN(CC)C(=O)c1cn(C)nc1OCc1cccc(C(F)(F)F)c1	Active	Active	Active	Active	Active	Active	Active	Active	Active	Active	Active	Active	Active	Active	Active	Active	Active	Active			Activity (Oryza sativa [1]): Toxic; Activity (Echinochloa oryzicola [2]): Active; Activity (Eleocharis acicularis [21]): Active; Activity [22]: Active; Activity (Pontederia vaginalis [23]): Active; Activity (Ammannia multiflora [24]): inactive; Activity (Rotala indica [25]): inactive; Activity (Elatine triandra [26]): inactive; Activity (Lindernia procumbens [27]): inactive; Activity (Cyperus difformis [28]): Active
CCONC(=O)c1cn(C)nc1OCc1cccc(C(F)(F)F)c1	Active	Active	Active	Active	Active	Active	Active	Active	Active	Active	Active	Active	Active	Active	Active	Active	Active	Active	Active	Non-toxic	Activity [31]: Active; Activity (Pontederia vaginalis [32]): Active; Activity (Ammannia multiflora [33]): Active; Activity (Rotala indica [34]): Active; Activity (Elatine triandra [35]): Active; Activity (Lindernia procumbens [36]): Active; Activity (Cyperus difformis [37]): Active; Activity (Echinochloa oryzicola [38]): Active; Activity (Oryza sativa [39]): Non-toxic; Activity (Eleocharis acicularis [40]): Active; Activity (Pontederia vaginalis [41]): Active; Activity [42]: Active; Activity (Ammannia multiflora [43]): Active; Activity (Elatine triandra [44]): Active; Activity (Rotala indica [45]): Active; Activity (Lindernia procumbens [46]): Active; Activity (Echinochloa oryzicola [47]): Active; Activity (Cyperus difformis [48]): Active
CCCN(CC)C(=O)c1cn(C)nc1OCc1cccc(C)c1	Active	Active	Active	Active	Active	Active	Active	Active	Active	Active	Active	Active	Active	Active	Active	Active	Active	Active			Activity (Oryza sativa [1]): Non-toxic; Activity (Echinochloa oryzicola [2]): inactive; Activity [22]: Active; Activity (Pontederia vaginalis [23]): Active; Activity (Ammannia multiflora [24]): Active; Activity (Rotala indica [25]): Active; Activity (Elatine triandra [26]): Active; Activity (Lindernia procumbens [27]): Active; Activity (Cyperus difformis [28]): Active
Cn1cc(C(=O)NOc2ccc(C(F)(F)F)cc2)c(OCc2cccc(C(F)(F)F)c2)n1	Active	Active	Active	Active	Active	Active	Active	Active	Active	Active	Active	Active	Active	Active	Active	Active	Active	Active	Active	Non-toxic	Activity [31]: Active; Activity (Pontederia vaginalis [32]): Active; Activity (Ammannia multiflora [33]): Active; Activity (Rotala indica [34]): Active; Activity (Elatine triandra [35]): Active; Activity (Lindernia procumbens [36]): Active; Activity (Cyperus difformis [37]): Active; Activity (Echinochloa oryzicola [38]): Active; Activity (Oryza sativa [39]): Non-toxic; Activity (Eleocharis acicularis [40]): Active; Activity (Pontederia vaginalis [41]): Active; Activity [42]: Active; Activity (Ammannia multiflora [43]): Active; Activity (Elatine triandra [44]): Active; Activity (Rotala indica [45]): Active; Activity (Lindernia procumbens [46]): Active; Activity (Echinochloa oryzicola [47]): Active; Activity (Cyperus difformis [48]): Active
CCCN(OCC)C(=O)c1cn(C)nc1OCc1cccc(C(F)(F)F)c1	Active	Active	Active	Active	Active	Active	Active	Active	Active	Active	Active	Active	Active	Active	Active	Active	Active	Active	inactive	Non-toxic	Activity [31]: inactive; Activity (Pontederia vaginalis [32]): inactive; Activity (Ammannia multiflora [33]): Active; Activity (Rotala indica [34]): Active; Activity (Elatine triandra [35]): Active; Activity (Lindernia procumbens [36]): Active; Activity (Cyperus difformis [37]): Active; Activity (Echinochloa oryzicola [38]): Active; Activity (Oryza sativa [39]): Non-toxic; Activity (Eleocharis acicularis [40]): Active; Activity (Pontederia vaginalis [41]): Active; Activity [42]: inactive; Activity (Ammannia multiflora [43]): Active; Activity (Elatine triandra [44]): Active; Activity (Rotala indica [45]): Active; Activity (Lindernia procumbens [46]): Active; Activity (Echinochloa oryzicola [47]): Active; Activity (Cyperus difformis [48]): Active
Cn1cc(C(=O)Nc2ccc(F)cc2F)c(OCc2cccc(C(F)(F)F)c2)n1	Active	Active	Active	Active	Active	Active	Active	Active	Active	Active	Active	Active	Active	Active	Active	Active	Active	Active	Active	Non-toxic	Activity [31]: inactive; Activity (Pontederia vaginalis [32]): Active; Activity (Ammannia multiflora [33]): Active; Activity (Rotala indica [34]): Active; Activity (Elatine triandra [35]): Active; Activity (Lindernia procumbens [36]): Active; Activity (Cyperus difformis [37]): Active; Activity (Echinochloa oryzicola [38]): inactive; Activity (Oryza sativa [39]): Toxic; Activity (Eleocharis acicularis [40]): Active; Activity (Pontederia vaginalis [41]): Active; Activity [42]: Active; Activity (Ammannia multiflora [43]): Active; Activity (Elatine triandra [44]): Active; Activity (Rotala indica [45]): Active; Activity (Lindernia procumbens [46]): Active; Activity (Echinochloa oryzicola [47]): inactive; Activity (Cyperus difformis [48]): Active

From ChEMBL document CHEMBL3046635, “Synthesis and Herbicidal Activity of New Pyrazole-4-carboxamide Derivatives” (J Pestic Sci, 2004)
